Assay results: paper PMC4234427 (Journal of Medicinal Chemistry, 2014)

What was measured:
[1] = target: T1, hCB2R (Homo sapiens, UniProt P34972); test: forskolin-stimulated cAMP assay; format: cell-based; conditions: for cAMP (CB2R) EC50/IC50 (nM): EC50: agonist mode, inhibition of forskolin (10 μM) mediated cAMP production
[2] = target: h-CB2R (Homo sapiens, UniProt P34972); conditions: classification from β-arrestin 2 (and cAMP) assays
[3] = target: T1, hCB2R; test: CB2R competitive radioligand binding assay; conditions: selectivity ratio
[4] = solubility under the cAMP assay test conditions; format: physicochemical; conditions: functional cAMP assay conditions

Chain of h-CB2R (P34972 whole entry): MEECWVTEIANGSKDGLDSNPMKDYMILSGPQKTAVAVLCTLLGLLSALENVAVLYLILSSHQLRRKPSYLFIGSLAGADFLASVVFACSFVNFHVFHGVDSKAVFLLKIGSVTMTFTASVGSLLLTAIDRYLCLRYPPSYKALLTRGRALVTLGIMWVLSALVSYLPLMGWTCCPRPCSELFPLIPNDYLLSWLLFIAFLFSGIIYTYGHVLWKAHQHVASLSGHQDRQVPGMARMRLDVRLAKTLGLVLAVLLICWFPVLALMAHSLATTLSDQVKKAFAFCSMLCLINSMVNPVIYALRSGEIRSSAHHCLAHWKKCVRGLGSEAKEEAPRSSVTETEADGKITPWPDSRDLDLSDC
T1 sequence (P34972 whole entry): as above

Row | Compound | functional activity at CB2R [2] | Ki(CB1)/Ki(CB2) [3] | further results
1 | CC1CCC(NC(=O)c2cc3cccnc3n(CCN3CCOCC3)c2=O)CC1 (centres unmarked) [A1] | agonists |  | cAMP (CB2R) EC50/IC50 (nM): EC50 [1]: 28.0 nM
2 | CC1CCC(NC(=O)c2cc3cccnc3n(Cc3ccc(F)cc3)c2=O)CC1 (centres unmarked) [A2] | agonists |  | cAMP (CB2R) EC50/IC50 (nM): EC50 [1]: 29.6 nM
3 | CC1CCC(NC(=O)c2cc3cccnc3n(CCO)c2=O)CC1 (centres unmarked) [Compound 3, 1-(2-Hydroxyethyl)-N-(4-methylcyclohexyl)-2-oxo-1,2-dihydro-1,8-naphthyridine-3-carboxamide] |  | >5 | 
4 | CC1CCC(NC(=O)c2cc3cccnc3n(CCCO)c2=O)CC1 (centres unmarked) [Compound 4, 1-(3-Hydroxypropyl)-N-(4-methylcyclohexyl)-2-oxo-1,2-dihydro-1,8-naphthyridine-3-carboxamide] |  | >77 | 
5 | CC1CCC(NC(=O)c2cc3cccnc3n(CCCCO)c2=O)CC1 (centres unmarked) [Compound 5, 1-(4-Hydroxybutyl)-N-(4-methylcyclohexyl)-2-oxo-1,2-dihydro-1,8-naphthyridine-3-carboxamide] | agonists | >187 | solubility under the test conditions [4]: insoluble
6 | CC1CCC(NC(=O)c2cc3cccnc3n(CCCCCO)c2=O)CC1 (centres unmarked) [Compound 6, 1-(5-Hydroxypentyl)-N-(4-methylcyclohexyl)-2-oxo-1,2-dihydro-1,8-naphthyridine-3-carboxamide] |  | >2778 | 
7 | CC1CCC(NC(=O)c2cc3cccnc3n(CCCCCCO)c2=O)CC1 (centres unmarked) [Compound 7, 1-(6-Hydroxyhexyl)-N-(4-methylcyclohexyl)-2-oxo-1,2-dihydro-1,8-naphthyridine-3-carboxamide] |  | >554 | 
8 | CCOC(=O)CCn1c(=O)c(C(=O)NC2CCC(C)CC2)cc2cccnc21 (centres unmarked) [Compound 8, Ethyl 3-(3-(4-Methylcyclohexylcarbamoyl)-2-oxo-1,8-naphthyridin-1(2H)-yl)propanoate] |  | >57 | 
9 | CCOC(=O)CCCn1c(=O)c(C(=O)NC2CCC(C)CC2)cc2cccnc21 (centres unmarked) [Compound 9, Ethyl 4-(3-(4-Methylcyclohexylcarbamoyl)-2-oxo-1,8-naphthyridin-1(2H)-yl)butanoate] |  | >160 | 
10 | COC(=O)CCCCn1c(=O)c(C(=O)NC2CCC(C)CC2)cc2cccnc21 (centres unmarked) [Compound 10, Methyl 5-(3-(4-Methylcyclohexylcarbamoyl)-2-oxo-1,8-naphthyridin-1(2H)-yl)pentanoate] |  | >369 | 
11 | CC1CCC(NC(=O)c2cc3cccnc3n(CCC(=O)O)c2=O)CC1 (centres unmarked) [Compound 11, 3-(3-(4-Methylcyclohexylcarbamoyl)-2-oxo-1,8-naphthyridin-1(2H)-yl)propanoic Acid] |  | >7 | 
12 | CC1CCC(NC(=O)c2cc3cccnc3n(CCCC(=O)O)c2=O)CC1 (centres unmarked) [Compound 12, 4-(3-(4-Methylcyclohexylcarbamoyl)-2-oxo-1,8-naphthyridin-1(2H)-yl)butanoic Acid] |  | >4 | 
13 | CC1CCC(NC(=O)c2cc3cccnc3n(CCCCC(=O)O)c2=O)CC1 (centres unmarked) [Compound 13, 5-(3-(4-Methylcyclohexylcarbamoyl)-2-oxo-1,8-naphthyridin-1(2H)-yl)pentanoic Acid] |  | >7 | 
14 | CC1CCC(NC(=O)c2cc3cccnc3n(CCCCF)c2=O)CC1 (centres unmarked) [Compound 14, 1-(4-Fluorobutyl)-1,2-dihydro-N-(4-methylcyclohexyl)-2-oxo-1,8-naphthyridine-3-carboxamide] | agonists |  | cAMP (CB2R) EC50/IC50 (nM): EC50 [1]: 20.6 nM
15 | CC1CCC(NC(=O)c2cc3cc(Br)cnc3n(Cc3ccc(F)cc3)c2=O)CC1 (centres unmarked) [Compound 17, 6-Bromo-1-(4-fluorobenzyl)-N-(4-methylcyclohexyl)-2-oxo-1,2-dihydro-1,8-naphthyridine-3-carboxamide] | inverse agonists as well as antagonists |  | solubility under the test conditions [4]: insoluble
16 | CC1CCC(NC(=O)c2cc3cc(Br)cnc3n(CCN3CCOCC3)c2=O)CC1 (centres unmarked) [Compound 18, 6-Bromo-N-(4-methylcyclohexyl)-1-(2-morpholinoethyl)-2-oxo-1,2-dihydro-1,8-naphthyridine-3-carboxamide] | inverse agonists as well as antagonists |  | cAMP (CB2R) EC50/IC50 (nM): IC50 ([1]; antagonist mode, inhibition of response to WIN-55,212-2 (30 nM) with forskolin): 59.6 nM
17 | CC1CCC(NC(=O)c2cc3cc(-c4ccc(F)cc4)cnc3n(Cc3ccc(F)cc3)c2=O)CC1 (centres unmarked) [Compound 21, 1-(4-Fluorobenzyl)-6-(4-fluorophenyl)-N-(4-methyl-cyclohexyl)-2-oxo-1,2-dihydro-1,8-naphthyridine-3-carboxamide] |  | >4608 | 
18 | C[C@H]1CC[C@@H](NC(=O)c2cc3cc(-c4ccco4)cnc3n(Cc3ccc(F)cc3)c2=O)CC1 [Compound 22-cis, cis-1-(4-Fluorobenzyl)-6-(furan-2-yl)-N-(4-methylcyclohexyl)-2-oxo-1,2-dihydro-1,8-naphthyridine-3-carboxamide] |  | 15 022 | 
19 | C[C@H]1CC[C@H](NC(=O)c2cc3cc(-c4ccco4)cnc3n(Cc3ccc(F)cc3)c2=O)CC1 [Compound 22-trans, trans-1-(4-Fluorobenzyl)-6-(furan-2-yl)-N-(4-methylcyclohexyl)-2-oxo-1,2-dihydro-1,8-naphthyridine-3-carboxamide] |  | >106 | 
20 | COc1ccc(-c2cnc3c(c2)cc(C(=O)NC2CCC(C)CC2)c(=O)n3CCN2CCOCC2)cc1 (centres unmarked) [Compound 23, 6-(4-Methoxyphenyl)-N-(4-methylcyclohexyl)-1-(2-morpholinoethyl)-2-oxo-1,2-dihydro-1,8-naphthyridine-3-carboxamide] | inverse agonists as well as antagonists | >6802 | solubility under the test conditions [4]: insoluble
